Measurements published in patent publication US11279734B2, “Solution-phase affinity selection of inhibitors from combinatorial peptide libraries” (Massachusetts Institute of Technology, priority 2017, dated 2022).
“Also recorded” adds a separate entry of the source. Read-outs that look alike come from different tables or passages of the source. Where no end group is shown, it is not given here. [ ]: non-standard residue; d: D form. Cha = N[C@@H](CC1CCCCC1)C(=O)O

Experiments:
MDM2 [1] = target: T1, MDM2 (Homo sapiens, UniProt Q00987); test: Kd MDM2 (nM)
Description: Table printed on a drawing sheet, Figure 2B
Head of the field: Kd MDM2 (nM)
The patent's description of the figure: FIGS. 2A-2F: Rapid combinatorial mapping of pDI (6) key binding residues and affinity selection of potent non-canonical inhibitors of ^25-109MDM2 and C-CA proteins. FIG. 2A) Combinatorial mapping of pDI (6) binding hotspots, library design. Represented are 6's randomized residues using L-configured (circles) natural amino acids. FIG. 2B) Affinity selected sequences from Library 1 and 2 at different stringencies (sequences 1 to 9) were validated after resynthesis and biotinylation or acetylation (peptides 1a to 6a and 7b to 9b) using bio-layer interferometry (BLI). In bold italic are represented randomized residues, and those that were varied compared to sequence 6. FIG. 2C) Expanding linear inhibitor hotspots to non-canonical amino acids. Library 3 was designed around 6 while Library 4 was designed around CAI (37) inhibitor. Depicted are randomized residues using non-canonical amino acids (abbreviations for each monomer are indicated in bold). FIG. 2D) Affinity selection from Library 3 at higher stringency using 6 as a soluble competitive inhibitor. […]
First copying reader's note: Randomized residues are printed in italic (bold or grey); this styling is not kept in the grid.
Where the first naming reader finds the target: head: Kd MDM2 (nM)

SUMO-25-109 MDM2 [2] = target: T2, SUMO-25-109 MDM2 (Homo sapiens, UniProt Q00987); test: BLI in solution competition assay; type: binding; conditions: for binding to MDM2 (in words): acetylated peptides or mini-proteins, BLI
Method: Calibration Curve: Streptavidin (SA) sensors were soaked in competition buffer (PBS supplemented with 0.05% Tween-20, and L-arginine pH 7.5) for 10 minutes at 30° C. […] The thus obtained biotinylated 63a (0.5 μM in competition buffer) was loaded on the SA sensor for 10 minutes at 30° C. and 1000 rpm. […] A calibration curve corresponding to binding response at equilibrium (in nm)=f(free [MDM2] in nM) was generated using GraphPad Prism 6 software using non-linear regression analysis (see FIG. 5).
Meanwhile, SA sensors were soaked in competition buffer for 10 minutes at 30° C. […] Based on the binding (nm) values, the concentration of “free” MDM2 was interpolated for each sample using the calibration curve. […] The following equation was used to generate fitted curves.

MCF-7 cells = test: Cell viability assay (MTS); type: cell-based; conditions: MCF-7 cells (MDM2 and MDMX overexpressing), 72 hours
Method: (§1) SJSA-1, K-562 and MCF-7 cells were plated in 96-well plates in RPMI-1640 containing 10% FBS and 1% Pen-Strep and the next day were treated with the indicated concentrations of peptide or vehicle control. Peptide stocks were diluted into RPMI-1640 containing 10% FBS and 1% Pen-Strep to achieve 2× working individual stock solutions that were thoroughly mixed then diluted into the treatment wells. Cell viability was assayed after 72 hours by addition of CellTiter 96® AQueous One Solution Cell Proliferation reagent (MTS). All assays were performed in triplicate, and data was normalized to vehicle treated control and analyzed using Prism software (GraphPad Software).

K-562 cells = test: Cell viability assay (MTS); type: cell-based; conditions: K-562 p53-null cells, 72 hours
Method: as §1

SJSA-1 cells [3] = test: Cell viability assay (MTS); type: cell-based; conditions: 72 hours
Method: as §1

SJSA-1 cells [4] = test: Western blot analysis of p53 activation (MDM2, p21); type: cell-based; conditions: 10 μM, 12 hours
Method: SJSA-1 and K-562 cells were seeded in 6 well plates at a cell density of 350*10^3 cells/well in RPMI-1640 media supplemented with 10% serum and 1% Pen-Strep and incubated overnight at 37° C. and 5% CO2. The next day cells were treated with peptides and controls at 10 μM for 12 hours. Then cells were harvested and their pellets washed (2×) with PBS and lysed in 100 μL of RIPA buffer supplemented with Roche protease inhibitor cocktail on ice for 30 minutes. The lysates were clarified by brief centrifugation at 4° C. and total protein concentration was determined using the Bio-Rad DC protein assay. Aliquots of the cell lysates were run on 12% Tris-Glycine polyacrylamide gels (Invitrogen). After transfer using Trans-Blot Turbo Transfer system (Biorad), the membrane was blocked at room temperature for 2 hours with LI-COR blocking buffer. The membrane was cut in three and each part was incubated respectively with anti-MDM2 (mouse, SMP14: sc-965, Santa Cruz Biotechnology), anti-p21 (mouse, F-5: sc-6246, Santa Cruz Biotechnology) and anti-GAPDH (rabbit, GAPDH (D16H11) XP®, Cell Signaling Technology) antibodies in TBST overnight at 4° C. The membranes were washed and incubated with the appropriate secondary antibodies in TBST for 1 h at room temperature, washed again, then imaged with the LI-COR Odyssey infrared imaging system (see FIGS. 103-105).

MDM2 [5] = target: T1, MDM2; test: HPSEC affinity selection under increasing stringency (EIC peak area); type: binding; conditions: usual stringency vs 100 μM of 6 and MDM2 lowered to […]
Method: SEC conditions: unless stated otherwise, high performance size exclusion column BIO-SEC-3, 7.8×150 mm, 3 μm particle size and 100 Å pore size was used. 100 μL of binding mixture containing peptides or peptide libraries and protein target was isocratically eluted in buffered mobile phase (25 mM Tris, 50 mM NaCl, pH 7.5, with or without L-arginine supplementation) at 1 mL/min flow rate for 15 minutes (typical backpressure ˜80-90 bars for a brand new column). Generally, mobile phase is also used as the binding buffer for affinity selection experiments, and systematically before each experiment a blank injection is performed consisting in a protein only injection. During affinity selection experiments the breakthrough fraction (protein fraction) was monitored by UV and collected. The latter contained the protein-binder complexes which were dissociated using 0.2% formic acid before characterization using LC-MS or LC-MS/MS analysis.

SUMO-25-109 MDM2 [6] = target: T2, SUMO-25-109 MDM2; type: binding; conditions: biotinylated peptides, BLI

With “Ac-LTYEHYWAQLTSK-NH2 [SEQ ID NO: 67 | 8b]” the Kd (MDM2 [1]) was 2700 nM.

“Bio-(PEG)4- Leu Thr F2f Glu His Tyr Hexa Ala Gln Cba Thr Ser Lys -NH2 [(SEQ ID NO: 11) | 10a]” showed a Kd (MDMX) of 26 nM.

For “Bio-(PEG)4- Leu Thr F2f Glu His Tyr Trp Ala Gln Cba Thr Ser Lys -NH2 [(SEQ ID NO: 12) | 11a]”, the Kd (MDMX) was 33 nM.

Substance “Bio-(PEG)4- Leu Thr Phe Glu His Tyr Trp Ala Gln Leu Thr Ser Lys -NH2 [(SEQ ID NO: 8) | 6a]” has a Kd (MDMX) of 83 nM.

With KAWYAN(CF3f)EKLLR [peptide 53] the “affinity for MDM2 lower than 54b” value (SUMO-25-109 MDM2 [2]; label free approach, relative to 54b) was “about 20 fold”.

KAWYAN[Cha]EKLLR [peptide 45] showed a Kd (SUMO-25-109 MDM2 [2]; in solution competition, acetylated peptide or mini-protein, fitted titration curve) of 6.1 nM.

“LT(F2f)(Dap)EYWAQ(Cba)(Dap)SAA [peptide 11b-S1]” was tested, and the cell viability (MCF-7 cells) was “lowered viability for MCF-7 cells”, the cell viability (K-562 cells) was “did not significantly lower K-562 viability” and the “cell killing / viability” value (SJSA-1 cells [3]) was “cell-killing properties; also recorded: killed SJSA-1 cells”. The “upregulation of MDM2 and p21” value (SJSA-1 cells [4]) was “upregulated MDM2 and P21 markers; also recorded: upregulated p53 gene products p21 and MDM2” and the “binding to MDM2 (in words)” value (SUMO-25-109 MDM2 [2]; in solution competition) was “low nanomolar affinity”.

In the case of “LT(F2f)(R8)EFWAQ(Cba)(S5)SAA [peptide 11b-M]”, the “cell killing / viability” value (SJSA-1 cells [3]) is reported as “cell-killing properties”, the “upregulation of MDM2 and p21” value (SJSA-1 cells [4]) is reported as “upregulated p21 and MDM2” and the “binding to MDM2 (in words)” value (SUMO-25-109 MDM2 [2]; in solution competition) is reported as “low nanomolar affinity”.

In the case of “LT(F2f)(R8)EY(Hexa)AQ(Cba)(S5)SAA [peptide 10b-M]”, the cell viability (MCF-7 cells) is reported as “lowered viability for MCF-7 cells”, the cell viability (K-562 cells) is reported as “did not significantly lower K-562 viability” and the “cell killing / viability” value (SJSA-1 cells [3]) is reported as “cell-killing properties; also recorded: killed SJSA-1 cells”. For the same substance, the “upregulation of MDM2 and p21” value (SJSA-1 cells [4]) was “upregulated MDM2 and P21 markers” and the “binding to MDM2 (in words)” value (SUMO-25-109 MDM2 [2]; in solution competition) was “low nanomolar affinity”.

“LT(F2f)(R8)EY(Napa)AE(Cba)KSAA [peptide 27b-M]” was tested, and the cell viability (MCF-7 cells) was “lowered viability for MCF-7 cells”, the cell viability (K-562 cells) was “did not significantly lower K-562 viability” and the “cell killing / viability” value (SJSA-1 cells [3]) was “cell-killing properties”. The “upregulation of MDM2 and p21” value (SJSA-1 cells [4]) was “upregulated p21 and MDM2” and the “binding to MDM2 (in words)” value (SUMO-25-109 MDM2 [2]; in solution competition) was “low nanomolar affinity”.

For LT(F2f)EHY(Hexa)AQ(Cba)TSK [peptide 10], the “EIC peak area variation from condition (A) to (D)” value (MDM2 [5]) was 4.5 fold.

For “LT(F2f)EHY(Hexa)AQ(Cba)TSK [peptide 10a]”, the “binding to MDM2 (in words)” value (SUMO-25-109 MDM2 [6]) was “high affinity binder”.

With “LT(F2f)EHY(Hexa)AQ(Cba)TSK [peptide 10b]” the “binding to MDM2 (in words)” value (SUMO-25-109 MDM2 [2]; in solution competition) was “low nanomolar affinity to MDM2”.

For LT(F2f)EHYWAQ(Cba)TSK [peptide 11], the “EIC peak area variation from condition (A) to (D)” value (MDM2 [5]) was 30 fold.

With LT(F2f)EHYWAQ(Cba)TSK [peptide 11b] the “binding to MDM2 (in words)” value (SUMO-25-109 MDM2 [2]; in solution competition) was “low nanomolar affinity”.

With “LT(F2f)KEY(Hexa)AQ(Cba)(K)SAA [peptide 10b-S4]” the “binding to MDM2 (in words)” value (SUMO-25-109 MDM2 [2]; in solution competition) was “weakened or abrogated binding”.

For LT(F2f)KEYWAE(Cba)KSAA [peptide 11b-S4], the “binding to MDM2 (in words)” value (SUMO-25-109 MDM2 [2]; in solution competition) was “weakened or abrogated binding”.

LTFCys(ar)HYWAQFCys(ar)SK [peptide 61a] was tested, and the “binding to MDM2 (in words)” value (SUMO-25-109 MDM2 [6]) was “substantially weaker binding compared to 60a”.

In the case of LTFEHYWAQFTSK [peptide 5a], the “binding to MDM2 (in words)” value (SUMO-25-109 MDM2 [6]) is reported as “nanomolar binder”.
